Results on 24 molecules are retold here after ChEMBL document CHEMBL1142418, “CoMFA and HQSAR studies on 6,7-dimethoxy-4-pyrrolidylquinazoline derivatives as phosphodiesterase10A inhibitors” (Bioorg Med Chem, 2008).

Test [1] has as its target cAMP and cAMP-inhibited cGMP 3',5'-cyclic phosphodiesterase 10A (Homo sapiens, UniProt Q9Y233). Put plainly: Inhibition of PDE10A.
The target of test [2] is cGMP-inhibited 3',5'-cyclic phosphodiesterase 3B (Homo sapiens, UniProt Q13370). Put plainly: Inhibition of PDE3B.
For test [3], the target named is cGMP-inhibited 3',5'-cyclic phosphodiesterase 3A (Homo sapiens, UniProt Q14432). Put plainly: Inhibition of PDE3A.

One may read the Ki as a dissociation constant, usually derived from enzyme kinetics or from competition with a known ligand.

cAMP and cAMP-inhibited cGMP 3',5'-cyclic phosphodiesterase 10A, sequence (Q9Y233 whole entry): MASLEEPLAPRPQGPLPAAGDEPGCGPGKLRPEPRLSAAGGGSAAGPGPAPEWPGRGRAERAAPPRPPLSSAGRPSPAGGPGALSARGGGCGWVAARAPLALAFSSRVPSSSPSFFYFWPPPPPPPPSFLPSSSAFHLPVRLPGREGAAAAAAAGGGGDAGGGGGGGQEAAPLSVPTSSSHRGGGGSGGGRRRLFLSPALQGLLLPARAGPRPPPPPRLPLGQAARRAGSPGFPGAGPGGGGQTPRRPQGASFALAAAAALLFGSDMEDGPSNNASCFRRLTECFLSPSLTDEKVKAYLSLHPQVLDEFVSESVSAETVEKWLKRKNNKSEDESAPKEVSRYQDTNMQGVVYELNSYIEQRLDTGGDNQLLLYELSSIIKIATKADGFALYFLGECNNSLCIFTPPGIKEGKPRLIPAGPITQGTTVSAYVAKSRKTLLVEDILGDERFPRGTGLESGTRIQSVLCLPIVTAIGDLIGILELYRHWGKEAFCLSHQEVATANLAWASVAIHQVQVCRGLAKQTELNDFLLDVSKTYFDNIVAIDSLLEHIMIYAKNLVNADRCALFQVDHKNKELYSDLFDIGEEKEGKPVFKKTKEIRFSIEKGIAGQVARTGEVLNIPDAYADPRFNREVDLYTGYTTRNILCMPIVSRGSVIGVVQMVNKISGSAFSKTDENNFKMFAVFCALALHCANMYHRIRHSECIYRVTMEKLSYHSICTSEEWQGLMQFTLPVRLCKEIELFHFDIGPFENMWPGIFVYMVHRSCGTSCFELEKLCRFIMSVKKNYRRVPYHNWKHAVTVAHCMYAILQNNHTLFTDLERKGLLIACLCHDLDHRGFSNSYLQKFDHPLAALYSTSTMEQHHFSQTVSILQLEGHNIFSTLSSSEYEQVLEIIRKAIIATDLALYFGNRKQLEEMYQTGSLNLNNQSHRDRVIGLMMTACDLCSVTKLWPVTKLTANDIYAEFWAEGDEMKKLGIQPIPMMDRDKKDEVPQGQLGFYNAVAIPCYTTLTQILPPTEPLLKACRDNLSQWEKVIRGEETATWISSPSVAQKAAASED
cGMP-inhibited 3',5'-cyclic phosphodiesterase 3B, sequence (Q13370 whole entry): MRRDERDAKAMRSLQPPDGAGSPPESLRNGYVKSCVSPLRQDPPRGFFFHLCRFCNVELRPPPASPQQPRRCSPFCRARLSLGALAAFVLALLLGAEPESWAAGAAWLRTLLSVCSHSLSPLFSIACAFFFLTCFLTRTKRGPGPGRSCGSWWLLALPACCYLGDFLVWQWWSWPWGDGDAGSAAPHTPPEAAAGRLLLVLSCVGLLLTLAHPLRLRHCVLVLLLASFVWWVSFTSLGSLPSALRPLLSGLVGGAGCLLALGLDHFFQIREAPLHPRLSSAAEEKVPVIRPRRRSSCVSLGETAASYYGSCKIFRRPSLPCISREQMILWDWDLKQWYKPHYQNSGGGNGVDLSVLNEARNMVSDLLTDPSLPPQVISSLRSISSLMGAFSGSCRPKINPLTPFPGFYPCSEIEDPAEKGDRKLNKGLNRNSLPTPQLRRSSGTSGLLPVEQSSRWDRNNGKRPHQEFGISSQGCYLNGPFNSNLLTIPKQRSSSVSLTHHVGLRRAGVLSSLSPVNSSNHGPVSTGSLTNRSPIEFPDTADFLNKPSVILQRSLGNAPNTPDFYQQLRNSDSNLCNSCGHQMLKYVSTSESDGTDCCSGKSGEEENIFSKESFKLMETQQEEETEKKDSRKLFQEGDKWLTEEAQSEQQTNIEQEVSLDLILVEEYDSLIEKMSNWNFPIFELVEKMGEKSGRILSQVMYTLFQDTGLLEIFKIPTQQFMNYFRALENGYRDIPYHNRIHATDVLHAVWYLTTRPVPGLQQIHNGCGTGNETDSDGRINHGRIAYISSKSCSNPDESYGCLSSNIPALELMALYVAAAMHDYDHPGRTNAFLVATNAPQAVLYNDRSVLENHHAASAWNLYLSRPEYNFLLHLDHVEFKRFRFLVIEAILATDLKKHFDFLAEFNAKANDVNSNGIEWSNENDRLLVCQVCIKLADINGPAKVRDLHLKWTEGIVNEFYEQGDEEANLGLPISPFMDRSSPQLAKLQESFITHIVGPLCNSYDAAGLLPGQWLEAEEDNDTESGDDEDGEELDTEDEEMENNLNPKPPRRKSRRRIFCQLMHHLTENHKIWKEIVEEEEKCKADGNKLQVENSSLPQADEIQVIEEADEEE
cGMP-inhibited 3',5'-cyclic phosphodiesterase 3A, sequence (Q14432 whole entry): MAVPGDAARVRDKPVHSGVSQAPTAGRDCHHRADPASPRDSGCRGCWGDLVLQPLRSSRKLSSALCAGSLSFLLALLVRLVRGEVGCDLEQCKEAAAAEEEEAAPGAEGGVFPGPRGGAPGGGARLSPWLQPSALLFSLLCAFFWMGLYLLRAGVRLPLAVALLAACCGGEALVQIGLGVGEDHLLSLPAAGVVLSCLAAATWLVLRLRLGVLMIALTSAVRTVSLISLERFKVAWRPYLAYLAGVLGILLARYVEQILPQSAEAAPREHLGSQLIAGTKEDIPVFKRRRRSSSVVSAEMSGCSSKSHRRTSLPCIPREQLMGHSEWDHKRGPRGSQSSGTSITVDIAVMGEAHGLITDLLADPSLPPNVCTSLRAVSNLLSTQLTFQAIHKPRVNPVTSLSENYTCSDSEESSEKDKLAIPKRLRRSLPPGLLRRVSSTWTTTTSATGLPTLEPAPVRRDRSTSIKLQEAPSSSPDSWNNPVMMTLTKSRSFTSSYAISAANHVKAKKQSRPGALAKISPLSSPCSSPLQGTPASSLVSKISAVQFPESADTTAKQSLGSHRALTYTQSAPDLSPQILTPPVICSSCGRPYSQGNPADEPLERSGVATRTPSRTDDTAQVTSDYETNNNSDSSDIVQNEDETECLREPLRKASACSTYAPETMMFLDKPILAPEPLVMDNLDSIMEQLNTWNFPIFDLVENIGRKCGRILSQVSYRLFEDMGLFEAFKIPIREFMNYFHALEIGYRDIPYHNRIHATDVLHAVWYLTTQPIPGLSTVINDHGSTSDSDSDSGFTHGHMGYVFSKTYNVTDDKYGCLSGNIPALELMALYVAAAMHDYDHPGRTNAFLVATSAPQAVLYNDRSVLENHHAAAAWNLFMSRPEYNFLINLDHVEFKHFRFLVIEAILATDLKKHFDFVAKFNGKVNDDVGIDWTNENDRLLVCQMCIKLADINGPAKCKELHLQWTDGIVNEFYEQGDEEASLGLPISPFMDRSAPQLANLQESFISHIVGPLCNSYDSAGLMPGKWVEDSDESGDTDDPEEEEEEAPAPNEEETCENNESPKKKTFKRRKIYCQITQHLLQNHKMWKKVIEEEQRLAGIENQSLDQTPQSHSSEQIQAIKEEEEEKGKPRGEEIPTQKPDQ

In test [1], `COc1cc2ncnc(N3CC[C@@H](Oc4cccc(-c5ccccc5)c4)C3)c2cc1OC` registered a Ki of 0.136 µM.
On the same count and under the same terms, then `COc1ccc2ccc(O[C@@H]3CCN(c4ncnc5cc(OC)c(OC)cc45)C3)cc2c1`, with 0.017 µM; and `CCOc1cccc(O[C@@H]2CCN(c3ncnc4cc(OC)c(OC)cc34)C2)c1`, with 0.094 µM.
Still for that read-out and setting: in the case of `COc1cc2ncnc(N3CC[C@@H](Oc4cc5ccccc5cn4)C3)c2cc1OC` it was 0.019 µM.
In test [1], `COc1cc2ncnc(N3CC[C@@H](Oc4ccncc4)C3)c2cc1OC` returned a Ki of 0.112 µM.
On the same count and under the same terms, then `COc1cc2ncnc(N3CC[C@@H](Oc4ccccn4)C3)c2cc1OC`, with 0.123 µM; and `COc1ccc2cc(O[C@@H]3CCN(c4ncnc5cc(OC)c(OC)cc45)C3)ccc2c1`, with 0.018 µM.
On the same count and under the same terms, then `COc1cc2ncnc(N3CC[C@@H](Oc4ccccc4C)C3)c2cc1OC`, with 0.326 µM; and `COc1cc2ncnc(N3CC[C@@H](Oc4ccc5ncccc5c4)C3)c2cc1OC`, with 0.012 µM; and `COc1cc2ncnc(N3CC[C@@H](Oc4cccc5ccccc45)C3)c2cc1OC`, with 0.21 µM.
For the molecule `COc1cc2ncnc(N3CC[C@@H](Oc4cccnc4)C3)c2cc1OC`, the Ki in test [1] stood at 0.128 µM.
For `CCOc1ccc(O[C@@H]2CCN(c3ncnc4cc(OC)c(OC)cc34)C2)cc1`, the Ki in test [1] was 0.054 µM.
Same read-out and setting: then `COc1cc2ncnc(N3CC[C@@H](Oc4ncc(Cl)cn4)C3)c2cc1OC`, with 0.044 µM; and `COc1cc2ncnc(N3CC[C@@H](Oc4ccc(C(C)(C)C)cc4)C3)c2cc1OC`, with 0.1 µM; and `COc1cc2ncnc(N3CC[C@@H](Oc4ccc5c(c4)CCC5)C3)c2cc1OC`, with 0.068 µM.
Still for that read-out and setting: in the case of `COc1cc2ncnc(N3CC[C@@H](Oc4ccccc4Cl)C3)c2cc1OC` it was 0.198 µM; in that of `COc1cc2ncnc(N3CC[C@@H](Oc4ccccc4C#N)C3)c2cc1OC`, 0.13 µM.
On the same count and under the same terms, in the case of `COc1cc2ncnc(N3CC[C@@H](Oc4ccc5cccnc5c4)C3)c2cc1OC` it was 0.012 µM; in that of `COc1cc2ncnc(N3CC[C@@H](Oc4ccc5nc(C)ccc5c4)C3)c2cc1OC`, 0.018 µM.
For `COc1ccc(O[C@@H]2CCN(c3ncnc4cc(OC)c(OC)cc34)C2)cc1OC`, the Ki in test [1] was 0.067 µM.
`COc1cc2ncnc(N3CC[C@@H](Oc4ccccc4OC)C3)c2cc1OC`: the Ki in test [1] was found to be 0.24 µM.
Same read-out and setting: in the case of `COc1cc2ncnc(N3CC[C@@H](Oc4ccccc4C(F)(F)F)C3)c2cc1OC` it was 0.811 µM.
`COc1cc2ncnc(N3CC[C@@H](Oc4cccc(C(C)C)c4)C3)c2cc1OC`: the Ki in test [2] was 0.474 µM; in test [3] it was 0.37 µM; in test [1], 0.171 µM.
`COc1cc2ncnc(N3CC[C@@H](Oc4ccc(OC(F)(F)F)cc4)C3)c2cc1OC`: the inhibitory constant (Ki) in test [2] is 1.82 µM; in test [3] it was 0.739 µM; in test [1], 0.185 µM.
